# Source: patent US10668051B2, “Modulators of calcium release-activated calcium channel” (Rhizen Pharmaceuticals SA, priority 2009, dated 2020)
# Assays:
# Format in all cases: cell-based
# IL-2 [1] = assay: Inhibition of cytokine release in Human Whole Blood: IL-2; conditions: Con A + PMA, 20 h, ELISA, read-out: IC 50 Human Whole Blood IL-2
# Method: (§1) 2. In Vitro Inhibition of Cytokine Release in Jurkat Cells, Human Whole Blood and Peripheral Blood Mononuclear Cells (PBMC).
# (§2) Inhibition of cytokine IL-2, IL-4, IL-5 and TNF α was determined as described below. • a. Inhibition of IL-2 in Jurkat cells: Cells were incubated with desired concentrations of the inhibitor for 15 min. Cytokine release was induced by the addition of Concanavalin A (25 μg/ml)+Phorbol Myristate Acetate (50 ng/ml) for IL-2 & TNFα or with Phytohemagglutinin ([…]) for IL-4 & IL-5 and incubated at 37° C. in an atmosphere containing […]. Supernatant was collected after 20 h (IL-2 & TNFα) or 48 h (IL-4 & IL-5) for estimation of cytokines by ELISA. Data were analysed using GraphPad Prism. IC50 values for each compound were determined based on the percent inhibition due to the test compound compared to the control. • b. Inhibition of cytokine release in Human Whole Blood (HWB): Freshly collected HWB was diluted with RPMI medium (1:4.5) and added to a 96-well plate. Wells were incubated with desired concentrations of the inhibitor for 15 min. Cytokine release was induced by the addition of Concanavalin A (25 μg/ml)+Phorbol Myristate Acetate (50 ng/ml) for IL-2 & TNFα or with Phytohemagglutinin (5 μg/ml) for IL-4 & IL-5 and incubated at 37° C. in an atmosphere containing […]. Supernatant was collected after 20 h (IL-2 & TNFα) or 48 h (IL-4 & IL-5) for estimation of cytokines by ELISA. Data were analysed using GraphPad Prism. IC50 values for each compound were determined based on the percent inhibition due to the test compound compared to the control. • c. Inhibition of cytokine release in PBMC: PBMC from freshly collected HWB were isolated by density gradient using Histopaque and seeded in a 96-well plate. Cells were incubated with desired concentrations of the inhibitor for 15 min. Cytokine release was induced by the addition of Concanavalin A (25 μg/ml)+Phorbol Myristate Acetate (50 ng/ml) for IL-2 & TNFα or with Phytohemagglutinin (5 μg/ml) for IL-4 & IL-5 and incubated at 37° C. in an atmosphere containing […]. Supernatant was collected after 20 h (IL-2 & TNFα) or 48 h (IL-4 & IL-5) for estimation of cytokines by ELISA. Data were analysed using GraphPad Prism. IC50 values for each compound were determined based on the percent inhibition due to the test compound compared to the control.
# CRAC channels [2] = target: T1, CRAC channels (Homo sapiens (Human), UniProt Q96D31); assay: In-vitro CRAC channel inhibition assay in NCI-H460 cancer cell line (Ca assay); conditions: thapsigargin-induced calcium influx, NCI-H460 cells
# T1 sequence (Q96D31 whole entry): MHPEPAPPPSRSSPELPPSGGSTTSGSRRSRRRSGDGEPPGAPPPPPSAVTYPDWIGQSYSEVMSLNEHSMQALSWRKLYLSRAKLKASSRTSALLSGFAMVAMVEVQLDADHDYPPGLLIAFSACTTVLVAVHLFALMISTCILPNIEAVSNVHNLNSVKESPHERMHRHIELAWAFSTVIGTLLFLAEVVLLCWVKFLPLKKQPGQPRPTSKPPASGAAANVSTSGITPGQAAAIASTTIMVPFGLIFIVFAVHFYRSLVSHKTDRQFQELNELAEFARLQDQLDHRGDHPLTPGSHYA
# Method: 1B. In-Vitro CRAC Channel Inhibition Assay in NCI-H460 Cancer Cell Line
# Inhibition of CRAC channels was determined following thapsigargin (Sigma, Cat #T9033) induced endoplasmic calcium release in NCI-H460 cells (National Centre For Cell Science (NCCS), Pune).
# Cells (30,000 per well) were plated overnight in complete RPMI medium. Medium was substituted with Ca^2+ and Mg^2+ free Hanks buffer and Fluo-8 NW dye (ABD Bioquest, Inc., Sunnyvale, Calif.) loading solution in 96-well black plate. Plate was incubated at 37° C./5% CO2 for 30 min followed by further 15 min incubation at room temperature. Test compounds (DMSO stocks diluted in Ca^2+ and Mg^2+ free Hanks buffer) at desired concentrations were added to the wells and incubated for 15 min. Thapsigargin (1 μM final concentration) was added to the wells and incubated for 15 min to inhibit the Sarco-endoplasmic reticulum Ca^2+ ATPase pump thereby depleting endoplasmic calcium and raising cytosolic calcium concentrations. Store-operated calcium entry was initiated by adding extracellular Ca^2+ to a final concentration of 2.5 mM. Fluorescence was monitored over 30 min on a plate reader (BMG Labtech., Germany) with excitation at 485 nm and an emission wavelength at 520 nm. Data were analyzed using GraphPad Prism. IC50 for each compound was determined based on the percent inhibition of Thapsigargin-induced calcium influx into cells.
# CRAC channels [3] = target: T1, CRAC channels; assay: In-vitro CRAC channel inhibition assay in Jurkat cells (thapsigargin-induced calcium influx)
# Outline: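 Jurkat cells given test compounds in Ca2+/Mg2+-free Hanks buffer for 15 min, then thapsigargin (1 μM final) for 15 min to deplete ER stores. IC50 from percent inhibition of thapsigargin-induced Ca2+ influx.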
# [4] = system: NCI-H460 cancer cell line; assay: In-vitro cell proliferation assay in NCI-H460 cancer cell line (MTT); conditions: Homo sapiens, 48 h; for IC50: read-out: NCI-H460 Cell line assay G1 50 nM
# Method: 1C. In-Vitro Cell Proliferation Assay in NCI-H460 Cancer Cell Line (Anticancer Activity)
# Growth inhibition assays were carried out using 10% FBS supplemented media. Cells were seeded at a concentration of 5000 cells/well in a 96-well plate. Test compound at a concentration range from 0.01 to 10000 nM were added after 24 h. Growth was assessed using the 3-[4,5-dimethylthiazol-2-yl]-2,5-diphenyltetrazolium bromide (MTT) dye reduction test at 0 h (prior to the addition of the test compound) and 48 h after the addition of test compound. Absorbance was read on a Fluostar Optima (BMG Labtech, Germany) at a wave length of 450 nm. Data were analysed using GraphPad Prism. IC-50 for each compound was determined based on the % inhibition due to the test compound compared to the control.
# For methods of cell proliferation assay, see, for example, Mosmann. T., Journal of Immunological Methods, 65(1-2), 55-63, (1983).
# TNFα [5] = assay: Inhibition of cytokine release in Human Whole Blood: TNFα; conditions: Con A + PMA, 20 h, ELISA, read-out: IC 50 Human Whole Blood TNFα
# Method: as §1, §2
# IL-5 [6] = assay: Inhibition of cytokine release in PBMC: IL-5; conditions: Homo sapiens, Phytohemagglutinin, 48 h, ELISA, read-out: IC 50 PBMC IL-5
# Method: as §1, §2
# IL-2 [7] = assay: Inhibition of cytokine release in PBMC: IL-2; conditions: Homo sapiens, Con A + PMA, 20 h, ELISA, read-out: IC 50 PBMC IL-2
# Method: as §1, §2
# IL-5 [8] = assay: Inhibition of cytokine release in Human Whole Blood: IL-5; conditions: Phytohemagglutinin, 48 h, ELISA, read-out: IC 50 Human Whole Blood IL-5
# Method: as §1, §2
# IL-4 [9] = assay: Inhibition of cytokine release in PBMC: IL-4; conditions: Homo sapiens, Phytohemagglutinin, 48 h, ELISA, read-out: IC 50 PBMC IL-4
# Method: as §1, §2
# TNFα [10] = assay: Inhibition of cytokine release in PBMC: TNFα; conditions: Homo sapiens, Con A + PMA, 20 h, ELISA, read-out: IC 50 PBMC TNFα
# Method: as §1, §2
# IL-2 [11] = assay: Inhibition of IL-2 in Jurkat cells; conditions: Homo sapiens, Con A + PMA, 20 h, ELISA, read-out: IC 50 Jurkat IL-2
# Method: as §1, §2
# IL-4 [12] = assay: Inhibition of cytokine release in Human Whole Blood: IL-4; conditions: Phytohemagglutinin, 48 h, ELISA, read-out: IC 50 Human Whole Blood IL-4
# Method: as §1, §2
IC50 (IL-2 [1]) [nM],inhibition at 1 µM (CRAC channels [2]) [%],inhibition at 1 µM (CRAC channels [3]) [%],IC50 (IL-2 [7]) [nM],SMILES,inhibition at 10 µM [4] [%],further results
274,84.6,99.4,21.3,"Cc1ncsc1C(=O)Nc1ccc(-n2nc(C(F)(F)F)cc2C2CC2)cc1 [Example 53, N-{4-[5-cyclopropyl-3-(trifluoromethyl)-1H-pyrazol-1-yl]phenyl}-4-methylthiazole-5-carboxamide]",22,IC50 (IL-5 [6]): 146 nM; IC50 (IL-4 [9]): 79.9 nM; IC50 (IL-5 [8]): 61.8 nM; IC50 (TNFα [10]): 121 nM; IC50 (TNFα [5]): 125 nM
,100,100,,"Cc1nc(C)c(C(=O)Nc2ccc(-n3nc(C(F)(F)F)cc3C3CC3)cc2)s1 [Example 55, N-{4-[5-cyclopropyl-3-(trifluoromethyl)-1H-pyrazol-1-yl]phenyl}-2,4-dimethylthiazole-5-carboxamide]",,IC50 [4]: 613 nM
34.7,,100,149,"Cc1ncsc1NC(=O)c1ccc(-n2nc(C(F)(F)F)cc2C2CC2)cc1 [Example 78, 4-[5-cyclopropyl-3-(trifluoromethyl)-1H-pyrazol-1-yl]-N-(4-methylthiazol-5-yl)benzamide]",,
38.2,,100,24.6,"Cc1nnsc1C(=O)Nc1ccc(-n2nc(C(F)(F)F)cc2C2CC2)c(F)c1 [Example 82, N-{4-[5-cyclopropyl-3-(trifluoromethyl)-1H-pyrazol-1-yl]-3-fluorophenyl}-4-methyl-1,2,3-thiadiazole-5-carboxamide]",,
132,,100,15.7,"Cc1ncsc1C(=O)Nc1ccc(-n2nc(C(F)(F)F)cc2C2CC2)c(F)c1 [Example 83, N-{4-[5-cyclopropyl-3-(trifluoromethyl)-1H-pyrazol-1-yl]-3-fluorophenyl}-4-methylthiazole-5-carboxamide]",,IC50 (IL-2 [11]): 57.9 nM; IC50 (IL-4 [9]): 352 nM; IC50 (TNFα [10]): 86.8 nM; IC50 (TNFα [5]): 546 nM
229,,100,,"O=C(Nc1ccc(-n2nc(C(F)(F)F)cc2C2CC2)c(F)c1)c1c(F)cccc1F [Example 88, N-{4-[5-cyclopropyl-3-(trifluoromethyl)-1H-pyrazol-1-yl]-3-fluorophenyl}-2,6-difluorobenzamide]",,IC50 (IL-4 [12]): 260 nM

# Continued, compound first:
SMILES,IC50 (IL-2 [1]) [nM],inhibition at 1 µM (CRAC channels [2]) [%],inhibition at 1 µM (CRAC channels [3]) [%],IC50 (IL-2 [7]) [nM],inhibition at 10 µM [4] [%],further results
"Cc1nnsc1C(=O)Nc1ccc(-n2nc(C3CC3)cc2C2CC2)cc1 [Example 1, N-[4-(3,5-dicyclopropyl-1H-pyrazol-1-yl)phenyl]-4-methyl-1,2,3-thiadiazole-5-carboxamide]",338,93.2,99,,31,IC50 (TNFα [5]): 1080 nM
"Cc1ncsc1C(=O)Nc1ccc(-n2nc(C3CC3)cc2C2CC2)cc1 [Example 2, N-[4-(3,5-dicyclopropyl-1H-pyrazol-1-yl)phenyl]-4-methylthiazole-5-carboxamide]",,100,100,,,IC50 [4]: 197 nM
"O=C(Nc1ccc(-n2nc(C3CC3)cc2C2CC2)cc1)c1ccccc1 [Example 6, N-[4-(3,5-dicyclopropyl-1H-pyrazol-1-yl)phenyl]benzamide]",,86,41.3,,35,
"O=C(Nc1ccc(-n2nc(C3CC3)cc2C2CC2)cc1)c1cccc(F)c1F [Example 9, N-[4-(3,5-dicyclopropyl-1H-pyrazol-1-yl)phenyl]-2,3-difluorobenzamide]",,86.8,98.6,,14,
"Cc1nnsc1C(=O)Nc1ccc(-n2nc(C3CC3)cc2C2CC2)c(F)c1 [Example 28, N-[4-(3,5-dicyclopropyl-1H-pyrazol-1-yl)-3-fluorophenyl]-4-methyl-1,2,3-thiadiazole-5-carboxamide]",600,,100,54.3,,IC50 (IL-5 [6]): 198 nM; IC50 (IL-5 [8]): 46.3 nM
"Cc1nnsc1C(=O)Nc1ccc(-n2nc(C(F)(F)F)cc2C2CC2)cc1 [Example 52, N-{4-[5-cyclopropyl-3-(trifluoromethyl)-1H-pyrazol-1-yl]phenyl}-4-methyl-1,2,3-thiadiazole-5-carboxamide]",,78.2,100,,34,
"O=C(Nc1c(F)cccc1F)c1ccc(-n2nc(C(F)(F)F)cc2C2CC2)c(F)c1 [Example 100, 4-[5-cyclopropyl-3-(trifluoromethyl)-1H-pyrazol-1-yl]-N-(2,6-difluorophenyl)-3-fluorobenzamide]",77.8,,86.7,31.4,,IC50 (IL-4 [12]): 256 nM; IC50 (IL-5 [8]): 56.4 nM
"Cc1ccccc1C(=O)Nc1ccc(-n2nc(C(F)(F)F)cc2C2CC2)nc1 [Example 104, N-{6-[5-cyclopropyl-3-(trifluoromethyl)-1H-pyrazol-1-yl]pyridin-3-yl}-2-methylbenzamide]",96.1,,100,66.7,,IC50 (IL-2 [11]): 57.5 nM; IC50 (TNFα [10]): 21.1 nM; IC50 (TNFα [5]): 582 nM
"O=C(Nc1ccc(-n2nc(C(F)(F)F)cc2C2CC2)nc1)c1ccccc1F [Example 106, N-(6-(5-cyclopropyl-3-(trifluoromethyl)-1H-pyrazol-1-yl)pyridin-3-yl)-2-fluorobenzamide]",83.6,,100,11.5,,IC50 (IL-2 [11]): 60.5 nM; IC50 (TNFα [10]): 105 nM
"C[C@]12C=CC(=O)C=C1CC[C@@H]1[C@@H]2[C@@H](O)C[C@@]2(C)[C@H]1CC[C@]2(O)C(=O)CO [Prednisolone, reference compound]",77.2,,,3.72,,IC50 (IL-2 [11]): 35.5 nM
